According to article PMC4718940, “Preclinical studies of 5-fluoro-2′-deoxycytidine and tetrahydrouridine in pediatric brain tumors” (Journal of Neuro-Oncology, 2015):
Where two headings read alike, the source gives them in different places.

Columns and labels:
[1] = tested on: CPC tumors; experiment: In vivo apoptosis, Caspase 3 immunohistochemistry, CPC
Protocol: (§5) To assess apoptosis and proliferation in vivo, G3 MB, EP, and CPC tumors were isolated from mice 3, 8, or 24 h after treatment with compound or vehicle, fixed in 10 % formalin, and sections were immunostained with antibodies to Caspase 3 (apoptosis) or Ki67 (proliferation).
(§6) In vivo apoptosis and proliferation were performed on G3 MB, EP, and CPC tumors isolated from mice 3, 8, or 24 hr after treatment with compound or vehicle (saline). Tumors were fixed in 10% formalin. Sections (4-micron) were immunostained with antibodies to Caspase 3 (CP229C, BioCare Medical, Concorde, CA) to detect apoptotic cells, or Ki67 (ThermoShandon, RM9106) to detect proliferation. The number of positive cells for each stain was normalized to the total number of cells.
(§7) Mice bearing G3 MB, EP, or CPC tumors were harvested 3, 8, or 24 hr after IP injection of vehicle (V) or FdCyd + THU (FdCyd). Fixed brains were sliced and stained for caspase 3. The percentage of positive cells was calculated based on total number of cells. SD= standard deviation.

[2] = tested on: CPC tumors; experiment: In vivo proliferation, Ki67 immunohistochemistry, CPC
Protocol: as §5, §6
Mice bearing G3 MB, EP, or CPC tumors were harvested 3, 8, or 24 hr after IP injection of vehicle (V) or FdCyd + THU (FdCyd). Fixed brains were sliced and stained for Ki67. The percentage of positive cells was calculated based on total number of cells.

[3] = tested on: mouse EP neurospheres; experiment: 72 h dose response, CellTiter-Glo, mouse EP neurospheres; type: cell-based; conditions: Mus musculus, Fig. 2a, read-out: EC50
Protocol: (§1) In the Discovery Phase, the initial studies included the screen of a library of 9 compounds against epigenetic regulators at a single concentration and a dose-response on G3 MB, EP, and CPC tumor cells, as well as HEPG2 and BJ (Fig. 1). The library and dose response studies are described in the Supplementary Material.
(§2) Briefly, cells (see Supplementary Table S2 for cell identity) were plated in 384-well plates (Corning) in 30 µL of supplemented neurobasal medium by using an automated plate filler (Wellmate, Matrix). After 24 hr, 28 nL of compound was transferred via pin tool, resulting in a final drug concentration of approximately 4 nM to 10 µM. After 72 hr of treatment, CellTiter-Glo reagent (Promega) was added, and the luminescence signal was measured using an automated Envision plate reader (Perkin-Elmer). Luminescence data were normalized by log10-transformation prior to calculating the percentage of inhibition using the following equation: 100 × (negative control mean − compound value)/(negative control mean − positive control mean). Our negative control represents cells treated with 0.1% DMSO with 0% inhibition. Cells treated with 35 µM cycloheximide (G3 MB tumor spheres) or 10 µM panobinostat (EP and CPC cells) were used as positive controls with 100% inhibition. The response of cells to the compounds were normalized to that of the positive controls present in each plate screened, shown in the Y axis of the dose-response curve. […] Unless otherwise reported, the y-axis for each dose response curve in the figures was independently normalized to the range from 0 to 1 and therefore reported as ‘relative growth inhibition’. High through put assay data were analyzed by using our in-house Robust Interpretation of Screening Experiments (RISE) application that was written in Pipeline Pilot (Accelrys, v. 8.5) and R (R Development Core Team).

[4] = tested on: Ink4a/Arf−/− neural stem cells; experiment: FdCyd growth inhibition, neural stem cells; type: cell-based, mouse; conditions: Fig. 2c
[5] = tested on: Mouse G3 MB Myc1 neurospheres; experiment: 72 h dose response, CellTiter-Glo, mouse G3 MB neurospheres; type: cell-based; conditions: Mus musculus, Fig. 2a, read-out: EC50
Protocol: as §1, §2

[6] = tested on: EP tumors; experiment: In vivo apoptosis, Caspase 3 immunohistochemistry, EP
Protocol: as §5, §6, §7

[7] = tested on: Patient-derived xenograft of a human G3 medulloblastoma, TB-12-5950; experiment: 72 h dose response, CellTiter-Glo, human G3 MB PDX cells; type: cell-based; conditions: Fig. 2b
[8] = tested on: mouse CPC neurospheres (CPC300); experiment: 72 h dose response, CellTiter-Glo, mouse CPC neurospheres; type: cell-based; conditions: Mus musculus, Fig. 2a, read-out: EC50
Protocol: as §1, §2

[9] = tested on: BJ cells; experiment: FdCyd growth inhibition, BJ control cells; type: cell-based, human; conditions: Fig. 2c
[10] = tested on: G3 MB tumors; experiment: In vivo apoptosis, Caspase 3 immunohistochemistry, G3 MB
Protocol: as §5, §6, §7

[11] = Plasma pharmacokinetics in non-tumor-bearing CD1 nude mice; type: in vivo, mouse; conditions: for AUC(0-inf): read-out: plasma exposure (AUC0-Inf), mean ± SD
Protocol: Once a drug passed the Discovery Phase it was moved to the Pre-Clinical Phase, which included PK and PD studies (Fig. 1). The details of the plasma PK and cerebral microdialysis studies are provided in the Supplemental Materials.
An initial, detailed plasma PK study was performed in non–tumor-bearing CD1 nude mice to define drug disposition in our mouse model of interest, determine the plasma systemic exposure, and when possible, to compare the systemic exposure in the mouse with that achievable in patients at clinically relevant dosages. Dosing solutions were prepared in 5% dextrose for injection at concentrations providing a standard final dosing volume of 10 mL/kg (i.e., 2.5 mg/mL FdCyd and 10 mg/mL THU). Plasma samples were separated by centrifugation and stored at −80°C until analysis using a sensitive and specific liquid chromatography–tandem mass spectrometry (LC-MS/MS) method to determine FdCyd concentrations. Plasma samples were collected by using a sparse sampling design in which 2 - 3 blood samples per mouse were collected in tubes containing zebularine (final concentration in blood sample, 1 mg/mL) to inhibit cytidine deaminase activity in vitro.
An appropriate pharmacokinetic model was fit to the observed concentration-time data obtained from the initial PK studies (IP and IV administration) by using non-linear mixed-effect modeling (NONMEM 7.2, ICON Development Solutions). Using D-optimality implemented in ADAPT 5, we use the data from the plasma pharmacokinetic study to define a pharmacokinetic limited sampling model (LSM), which will be used in subsequent microdialysis studies.

[12] = tested on: EP cells; experiment: FdCyd wash-out experiment, EP; type: cell-based; conditions: Mus musculus
Protocol: Myc1 and Myc2 G3 MB, EP, and CPC tumor cells (Supplementary Table 1) were plated in 96-well plates. After 24 h, 128 nL of a dilution series of a selected drug was transferred creating a final drug concentration of 0.5–9.3 µM. To assess the optimal exposure time, the drug was removed and replaced with fresh medium after 1, 3, 6, 10, 24, or 72 h (“wash-out”).
In both experiments, 72 h after drug addition to cells, we added 100 µL of CellTiter-Glo reagent (Promega), and we read the luminescence signal. Data analysis used GraphPad Prism software (Version 5.04).

[13] = tested on: tumorspheres derived from murine G3 MB, EP, and CPC; experiment: In vitro growth inhibition, all three tumor cell types (summary); type: cell-based; conditions: Mus musculus, 72 hr
[14] = tested on: mouse G3 MB tumorspheres (Myc1, Myc2); experiment: In vitro proliferation/cell cycle, BrdU FACS; type: cell-based; conditions: 4 nM FdCyd alone, compared to DMSO-treated cells
Source text: (§3) See Supplementary Material for more details.
(§4) Tumors were fixed in 10% formalin.

[15] = tested on: Trp53−/−, Cdkn2c−/− neurospheres; experiment: In vitro cell cycle and apoptosis, control neurospheres; type: cell-based, mouse; conditions: 4 nM FdCyd
Source text: as §3, §4

SMILES: Nc1nc(=O)n([C@H]2C[C@H](O)[C@@H](CO)O2)cc1F [FdCyd, 5-fluoro-2′-deoxycytidine]
- Caspase-3 % of positive cells ([1]; 3 hr after IP injection of FdCyd + THU, vehicle 3.963): 10.63%
- Caspase-3 % of positive cells ([1]; 8 hr after IP injection of FdCyd + THU, vehicle 4.917): 2.297%
- Caspase-3 % of positive cells ([1]; 24 hr after IP injection of FdCyd + THU, vehicle 3.493): 6.797%
- Ki67 % of positive cells ([2]; 3 hr after IP injection of FdCyd + THU, vehicle 59.03): 47.82%
- Ki67 % of positive cells ([2]; 8 hr after IP injection of FdCyd + THU, vehicle 62.25): 23.4%
- Ki67 % of positive cells ([2]; 24 hr after IP injection of FdCyd + THU, vehicle 53.18): 61.3%
- EC50 [3]: 4 nM
- sensitivity to FdCyd (growth inhibition) [4]: showed sensitivity
- EC50 [5]: 1.7 nM
- Caspase-3 % of positive cells ([6]; 3 hr after IP injection of FdCyd + THU, vehicle 0.9975): 1.416%
- Caspase-3 % of positive cells ([6]; 8 hr after IP injection of FdCyd + THU, vehicle 1.110): 1.210%
- Caspase-3 % of positive cells ([6]; 24 hr after IP injection of FdCyd + THU, vehicle 1.427): 1.030%
- EC50 [7]: 1 nM
- EC50 [8]: 5.6 nM
- sensitivity to FdCyd (growth inhibition) [9]: not
- Caspase-3 % of positive cells ([10]; 3 hr after IP injection of FdCyd + THU, vehicle 12.37): 19.88%
- Caspase-3 % of positive cells ([10]; 8 hr after IP injection of FdCyd + THU, vehicle 8.945): 11.04%
- Caspase-3 % of positive cells ([10]; 24 hr after IP injection of FdCyd + THU, vehicle 9.419): 10.38%
- FdCyd exposure in mice relative to humans ([11]; CD1 nude mice 25 mg/kg vs humans at RP2D 100 mg/m^2, human PK ref 26): approximately 4 times higher
- AUC(0-inf) ([11]; CD1 nude, mouse, plasma, FdCyd 25 mg/kg with THU 100 mg/kg, IP): 112 ± 6.55 µM·h
- AUC(0-inf) ([11]; CD1 nude, mouse, plasma, FdCyd 25 mg/kg with THU 100 mg/kg, IV): 114 ± 4.77 µM·h
- clearance ([11]; CD1 nude, mouse, plasma, FdCyd 25 mg/kg with THU 100 mg/kg, NONMEM, IV and IP data, read-out: systemic clearance, population mean (standard error of estimation) (converted)): 15 mL/min/kg
- Vd ([11]; CD1 nude, mouse, plasma, FdCyd 25 mg/kg with THU 100 mg/kg, NONMEM, IV and IP data, read-out: volume of distribution, population mean (standard error of estimation)): 0.62 L/kg
- murine plasma exposure compared with RP2D in humans ([11]; IP 6 mg/kg FdCyd with 100 mg/kg THU, confirmatory PK study): comparable
- EC50 ([12]; 1 h exposure then wash-out, read at 72 h, read-out: EC50 after 1 h FdCyd exposure): 22 ± 8 nM
- EC50 ([12]; 72 h, wash-out, 1st of 4 values listed for the remaining time points (3, 6, 10, 24, 72 h), read-out: EC50, longer exposure): 17 nM
- EC50 ([12]; 72 h, wash-out, 2nd of 4 values listed for the remaining time points (3, 6, 10, 24, 72 h), read-out: EC50, longer exposure): 13 nM
- EC50 ([12]; 72 h, wash-out, 3rd of 4 values listed for the remaining time points (3, 6, 10, 24, 72 h), read-out: EC50, longer exposure): 3 nM
- EC50 ([12]; 72 h, wash-out, 4th of 4 values listed for the remaining time points (3, 6, 10, 24, 72 h), read-out: EC50, longer exposure): 0.7 nM
- EC50 [13]: 1 to 6 nM
- cell cycle distribution (BrdU) [14]: increased the number of cells in the G0/G1phase
- effect on cell cycle and apoptosis of control neurospheres [15]: without affecting control neurospheres
